Assay results reported in ChEMBL document CHEMBL1201861, “Genomics of Drug Sensitity in Cancer screening data, Wellcome Trust Sanger Institute”.

Assays:
Experiment in all cases: cells
[1] = tested on: HMV-2 cell line; format: functional, cell-based, Homo sapiens; conditions: Homo sapiens, HMV-2;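 note: growth inhibition of HMV-II cells, read out with a cell viability assay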
Description: SANGER: Inhibition of human HMV-II cell growth in a cell viability assay.

[2] = tested on: GI-ME-N; format: functional, cell-based, Homo sapiens; conditions: Homo sapiens, GI-ME-N;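 note: growth inhibition of human GI-ME-N cells, read out with a cell viability assay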
Description: SANGER: Inhibition of human GI-ME-N cell growth in a cell viability assay.

[3] = tested on: SW626; format: functional, cell-based, Homo sapiens; conditions: Homo sapiens, SW626;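 note: growth inhibition of SW626 cells, measured with a cell viability assay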
Description: SANGER: Inhibition of human SW626 cell growth in a cell viability assay.

[4] = tested on: SK-NEP-1; format: functional, cell-based; conditions: Homo sapiens;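 note: growth inhibition of human SK-NEP-1 cells, read out by a cell viability assay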
Description: SANGER: Inhibition of human SK-NEP-1 cell growth in a cell viability assay.

[5] = tested on: KARPAS-299; format: functional, cell-based; conditions: Homo sapiens
Description: SANGER: Inhibition of human KARPAS-299 cell growth in a cell viability assay.

[6] = tested on: ES5; format: functional, cell-based, Homo sapiens; conditions: Homo sapiens, ES5;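 note: growth inhibition of human ES5 cells, read out by a cell viability assay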
Description: SANGER: Inhibition of human ES5 cell growth in a cell viability assay.

[7] = tested on: HOP-92; format: functional, cell-based, Homo sapiens; conditions: Homo sapiens, HOP-92;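 note: cell viability readout, with IC50 reflecting inhibition of HOP-92 cell growth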
Description: SANGER: Inhibition of human HOP-92 cell growth in a cell viability assay.

[8] = tested on: SNU1; format: functional, cell-based; conditions: Homo sapiens;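 note: growth inhibition of human NCI-SNU-1 cells, measured with a cell viability assay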
Description: SANGER: Inhibition of human NCI-SNU-1 cell growth in a cell viability assay.

[9] = tested on: A253 cell line; format: functional, cell-based, Homo sapiens; conditions: Homo sapiens, A253;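 note: growth inhibition of A253 cells, read out with a cell viability assay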
Description: SANGER: Inhibition of human A253 cell growth in a cell viability assay.

[10] = tested on: Ca9-22; format: functional, cell-based, Homo sapiens; conditions: Homo sapiens, Ca9-22;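 note: growth inhibition of Ca9-22 cells, read out with a cell viability assay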
Description: SANGER: Inhibition of human Ca9-22 cell growth in a cell viability assay.

[11] = tested on: HCC1937; format: functional, cell-based, Homo sapiens; conditions: Homo sapiens, HCC1937;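 note: growth inhibition measured with a cell viability read-out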
Description: SANGER: Inhibition of human HCC1937 cell growth in a cell viability assay.

[12] = tested on: NCI-H810; format: functional, cell-based, Homo sapiens; conditions: Homo sapiens, NCI-H810;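 note: IC50 reflects inhibition of cancer cell line growth, read out with a cell viability assay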
Description: SANGER: Inhibition of human NCI-H810 cell growth in a cell viability assay.

[13] = tested on: GI-1; format: functional, cell-based, Homo sapiens; conditions: Homo sapiens, GI-1;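 note: growth inhibition of human GI-1 cells, measured with a cell viability readout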
Description: SANGER: Inhibition of human GI-1 cell growth in a cell viability assay.

[14] = tested on: HuTu80; format: functional, cell-based, Homo sapiens, HUTU-80; conditions: Homo sapiens, HuTu80;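 note: growth inhibition of HuTu80 human cells, determined with a cell viability readout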
Description: SANGER: Inhibition of human HUTU-80 cell growth in a cell viability assay.

[15] = tested on: CAL-85-1; format: functional, cell-based; conditions: Homo sapiens;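 note: growth inhibition of human CAL-85-1 cells, read out with a cell viability assay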
Description: SANGER: Inhibition of human CAL-85-1 cell growth in a cell viability assay.

[16] = tested on: EOL1; format: functional, cell-based; conditions: Homo sapiens;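 note: growth inhibition of EoL-1 cells, read out by a cell viability assay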
Description: SANGER: Inhibition of human EoL-1-cell cell growth in a cell viability assay.

[17] = tested on: NCI-H2126; format: functional, cell-based, Homo sapiens; conditions: Homo sapiens, NCI-H2126;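 note: growth inhibition of the cancer cell line, determined with a cell viability readout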
Description: SANGER: Inhibition of human NCI-H2126 cell growth in a cell viability assay.

[18] = tested on: NCI-H1770; format: functional, cell-based; conditions: Homo sapiens;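 note: growth inhibition of NCI-H1770 cells determined with a viability readout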
Description: SANGER: Inhibition of human NCI-H1770 cell growth in a cell viability assay.

[19] = tested on: EW-11; format: functional, cell-based, Homo sapiens; conditions: Homo sapiens, EW-11;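 note: growth inhibition of human EW-11 cells, measured with a cell viability assay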
Description: SANGER: Inhibition of human EW-11 cell growth in a cell viability assay.

[20] = tested on: NCI-H446; format: functional, cell-based; conditions: Homo sapiens;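 note: growth inhibition of NCI-H446 cells determined by a cell viability assay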
Description: SANGER: Inhibition of human NCI-H446 cell growth in a cell viability assay.

[21] = tested on: KINGS-1; format: functional, cell-based, Homo sapiens; conditions: Homo sapiens, KINGS-1;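 note: cell viability assay measuring suppression of KINGS-1 cell growth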
Description: SANGER: Inhibition of human KINGS-1 cell growth in a cell viability assay.

[22] = tested on: LU-139; format: functional, cell-based; conditions: Homo sapiens
Description: SANGER: Inhibition of human LU-139 cell growth in a cell viability assay.

[23] = tested on: OCUB-M; format: functional, cell-based, Homo sapiens; conditions: Homo sapiens, OCUB-M;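 note: growth inhibition of the cancer cell line, read out through a cell viability assay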
Description: SANGER: Inhibition of human OCUB-M cell growth in a cell viability assay.

[24] = tested on: KURAMOCHI; format: functional, cell-based; conditions: Homo sapiens;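 note: growth inhibition of KURAMOCHI cells, read out with a cell viability assay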
Description: SANGER: Inhibition of human KURAMOCHI cell growth in a cell viability assay.

[25] = tested on: Capan-2; format: functional, cell-based, Homo sapiens; conditions: Homo sapiens, Capan-2;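 note: Capan-2 cell growth inhibition, read out with a viability assay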
Description: SANGER: Inhibition of human Capan-2 cell growth in a cell viability assay.

[26] = tested on: HT; format: functional, cell-based; conditions: Homo sapiens
Description: SANGER: Inhibition of human HT cell growth in a cell viability assay.

[27] = tested on: NCI-H1651; format: functional, cell-based, Homo sapiens; conditions: Homo sapiens, NCI-H1651;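 note: Read-out is a cell viability assay, with IC50 expressing inhibition of NCI-H1651 cell growth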
Description: SANGER: Inhibition of human NCI-H1651 cell growth in a cell viability assay.

[28] = tested on: KNS-42; format: functional, cell-based, Homo sapiens; conditions: Homo sapiens, KNS-42;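 note: growth inhibition of KNS-42 cells, read out with a cell viability assay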
Description: SANGER: Inhibition of human KNS-42 cell growth in a cell viability assay.

[29] = tested on: GMS-10; format: functional, cell-based, Homo sapiens; conditions: Homo sapiens, GMS-10;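 note: growth inhibition of GMS-10 cells, read out as cell viability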
Description: SANGER: Inhibition of human GMS-10 cell growth in a cell viability assay.

[30] = tested on: COLO-741; format: functional, cell-based, Homo sapiens; conditions: Homo sapiens, COLO-741
Description: SANGER: Inhibition of human COLO-741 cell growth in a cell viability assay.

[31] = tested on: LU-134-A; format: functional, cell-based; conditions: Homo sapiens
Description: SANGER: Inhibition of human LU-134-A cell growth in a cell viability assay.

[32] = tested on: EGI-1; format: functional, cell-based, Homo sapiens; conditions: Homo sapiens, EGI-1;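 note: cell viability readout used to gauge growth inhibition of EGI-1 cells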
Description: SANGER: Inhibition of human EGI-1 cell growth in a cell viability assay.

[33] = tested on: SK-HEP1; format: functional, cell-based, Homo sapiens, SK-HEP-1; conditions: Homo sapiens, SK-HEP1;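 note: cell viability readout used to quantify reduction in proliferation of human SK-HEP-1 cells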
Description: SANGER: Inhibition of human SK-HEP-1 cell growth in a cell viability assay.

[34] = tested on: UACC-893; format: functional, cell-based, Homo sapiens; conditions: Homo sapiens, UACC-893
Description: SANGER: Inhibition of human UACC-893 cell growth in a cell viability assay.

[35] = tested on: KP-N-YS; format: functional, cell-based; conditions: Homo sapiens;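 note: cell viability assay measuring inhibition of cell line growth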
Description: SANGER: Inhibition of human KP-N-YS cell growth in a cell viability assay.

[36] = tested on: CAL-120; format: functional, cell-based, Homo sapiens; conditions: Homo sapiens, CAL-120;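 note: cell growth inhibition, read out as cell viability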
Description: SANGER: Inhibition of human CAL-120 cell growth in a cell viability assay.

[37] = tested on: TE-10; format: functional, cell-based, Homo sapiens; conditions: Homo sapiens, TE-10;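 note: growth inhibition of TE-10 cells, measured by a cell viability assay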
Description: SANGER: Inhibition of human TE-10 cell growth in a cell viability assay.

[38] = tested on: NCI-N87; format: functional, cell-based, Homo sapiens; conditions: Homo sapiens, NCI-N87;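 note: growth inhibition of human NCI-N87 cells, read out with a cell viability assay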
Description: SANGER: Inhibition of human NCI-N87 cell growth in a cell viability assay.

[39] = tested on: NCI-H661; format: functional, cell-based, Homo sapiens; conditions: Homo sapiens, NCI-H661;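 note: cell viability assay read-out, IC50 being the concentration that inhibits growth of the cells by half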
Description: SANGER: Inhibition of human NCI-H661 cell growth in a cell viability assay.

[40] = tested on: NCI-H520; format: functional, cell-based, Homo sapiens; conditions: Homo sapiens, NCI-H520;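 note: growth inhibition of NCI-H520 cells, measured by a cell viability assay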
Description: SANGER: Inhibition of human NCI-H520 cell growth in a cell viability assay.

[41] = tested on: HAL-01; format: functional, cell-based; conditions: Homo sapiens;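 note: growth inhibition of human HAL-01 cells, read out with a cell viability assay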
Description: SANGER: Inhibition of human HAL-01 cell growth in a cell viability assay.

[42] = tested on: D-263MG; format: functional, cell-based, Homo sapiens; conditions: Homo sapiens, D-263MG
Description: SANGER: Inhibition of human D-263MG cell growth in a cell viability assay.

[43] = tested on: HT-3; format: functional, cell-based, Homo sapiens; conditions: Homo sapiens, HT-3;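 note: growth inhibition measured with a cell viability readout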
Description: SANGER: Inhibition of human HT-3 cell growth in a cell viability assay.

[44] = tested on: SK-N-FI; format: functional, cell-based, Homo sapiens; conditions: Homo sapiens, SK-N-FI;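 note: cell viability assay measuring growth inhibition of human SK-N-FI cells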
Description: SANGER: Inhibition of human SK-N-FI cell growth in a cell viability assay.

[45] = tested on: CAL-51; format: functional, cell-based, Homo sapiens; conditions: Homo sapiens, CAL-51;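 note: human CAL-51 cell line, growth inhibition read out via a cell viability assay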
Description: SANGER: Inhibition of human CAL-51 cell growth in a cell viability assay.

[46] = tested on: KYSE-410; format: functional, cell-based, Homo sapiens; conditions: Homo sapiens, KYSE-410;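 note: growth inhibition of KYSE-410 cells, measured through a cell viability readout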
Description: SANGER: Inhibition of human KYSE-410 cell growth in a cell viability assay.

[47] = tested on: MN-60; format: functional, cell-based; conditions: Homo sapiens;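 note: growth inhibition of the MN-60 cell line, determined with a cell viability assay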
Description: SANGER: Inhibition of human MN-60 cell growth in a cell viability assay.

[48] = tested on: NCI-H209; format: functional, cell-based; conditions: Homo sapiens;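 note: growth inhibition of human NCI-H209 cells, measured by a cell viability assay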
Description: SANGER: Inhibition of human NCI-H209 cell growth in a cell viability assay.

[49] = tested on: ES1; format: functional, cell-based, Homo sapiens; conditions: Homo sapiens, ES1;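 note: growth inhibition of ES1 cells, read out with a cell viability assay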
Description: SANGER: Inhibition of human ES1 cell growth in a cell viability assay.

[50] = tested on: HC-1; format: functional, cell-based; conditions: Homo sapiens;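 note: growth inhibition of HC-1 cells measured by a cell viability assay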
Description: SANGER: Inhibition of human HC-1 cell growth in a cell viability assay.

[51] = tested on: LB2518-MEL; format: functional, cell-based, Homo sapiens; conditions: Homo sapiens, LB2518-MEL;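 note: growth inhibition of human LB2518-MEL cells, measured with a cell viability assay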
Description: SANGER: Inhibition of human LB2518-MEL cell growth in a cell viability assay.

[52] = tested on: COLO-824; format: functional, cell-based, Homo sapiens; conditions: Homo sapiens, COLO-824
Description: SANGER: Inhibition of human COLO-824 cell growth in a cell viability assay.

Structure (SMILES): C=CCc1cccc(/C=N/NC(=O)CN2CCN(Cc3ccccc3)CC2)c1O [PAC-1]
- IC50 [1]: > 2560 nM
- IC50 [2]: > 2560 nM
- IC50 [3]: > 2560 nM
- IC50 [4]: > 2560 nM
- IC50 [5]: > 2560 nM
- IC50 [6]: > 2560 nM
- IC50 [7]: > 2560 nM
- IC50 [8]: > 2560 nM
- IC50 [9]: > 2560 nM
- IC50 [10]: > 2560 nM
- IC50 [11]: > 2560 nM
- IC50 [12]: > 2560 nM
- IC50 [13]: > 2560 nM
- IC50 [14]: > 2560 nM
- IC50 [15]: > 2560 nM
- IC50 [16]: > 2560 nM
- IC50 [17]: > 2560 nM
- IC50 [18]: > 2560 nM
- IC50 [19]: > 2560 nM
- IC50 [20]: > 2560 nM
- IC50 [21]: > 2560 nM
- IC50 [22]: > 2560 nM
- IC50 [23]: > 2560 nM
- IC50 [24]: > 2560 nM
- IC50 [25]: > 2560 nM
- IC50 [26]: > 2560 nM
- IC50 [27]: > 2560 nM
- IC50 [28]: > 2560 nM
- IC50 [29]: > 2560 nM
- IC50 [30]: > 2560 nM
- IC50 [31]: > 2560 nM
- IC50 [32]: > 2560 nM
- IC50 [33]: > 2560 nM
- IC50 [34]: > 2560 nM
- IC50 [35]: > 2560 nM
- IC50 [36]: > 2560 nM
- IC50 [37]: > 2560 nM
- IC50 [38]: > 2560 nM
- IC50 [39]: > 2560 nM
- IC50 [40]: > 2560 nM
- IC50 [41]: 788 nM
- IC50 [42]: > 2560 nM
- IC50 [43]: > 2560 nM
- IC50 [44]: > 2560 nM
- IC50 [45]: > 2560 nM
- IC50 [46]: 1180 nM
- IC50 [47]: > 2560 nM
- IC50 [48]: > 2560 nM
- IC50 [49]: > 2560 nM
- IC50 [50]: 1860 nM
- IC50 [51]: > 2560 nM
- IC50 [52]: > 2560 nM

Structure (SMILES): CCC1=C[C@@H]2CN(C1)Cc1c([nH]c3ccccc13)[C@@](C(=O)OC)(c1cc3c(cc1OC)N(C)[C@H]1[C@@](O)(C(=O)OC)[C@H](OC(C)=O)[C@]4(CC)C=CCN5CC[C@]31[C@@H]54)C2 [VINORELBINE]
- IC50 [1]: 4.77 nM
- IC50 [2]: 5.76 nM
- IC50 [3]: 37.7 nM
- IC50 [4]: 8.99 nM
- IC50 [5]: > 64 nM
- IC50 [6]: > 64 nM
- IC50 [7]: 51.3 nM
- IC50 [8]: 32.7 nM
- IC50 [9]: 1.22 nM
- IC50 [10]: 10.3 nM
- IC50 [11]: > 64 nM
- IC50 [12]: 3.91 nM
- IC50 [13]: 3.54 nM
- IC50 [14]: 2.18 nM
- IC50 [15]: 4.9 nM
- IC50 [16]: 9.09 nM
- IC50 [17]: 29.3 nM
- IC50 [18]: 5.53 nM
- IC50 [19]: 42.7 nM
- IC50 [20]: 14.8 nM
- IC50 [21]: > 64 nM
- IC50 [22]: 52.9 nM
- IC50 [23]: 4.43 nM
- IC50 [24]: 2.81 nM
- IC50 [25]: 30.4 nM
- IC50 [26]: 21.6 nM
- IC50 [27]: 60.6 nM
- IC50 [28]: 8.03 nM
- IC50 [29]: > 64 nM
- IC50 [30]: 35.7 nM
- IC50 [31]: 47.2 nM
- IC50 [32]: > 64 nM
- IC50 [33]: 4.52 nM
- IC50 [34]: > 64 nM
- IC50 [35]: 21.8 nM
- IC50 [36]: 43.6 nM
- IC50 [37]: 3.62 nM
- IC50 [38]: 44.1 nM
- IC50 [39]: 20.4 nM
- IC50 [40]: 1.87 nM
- IC50 [41]: > 64 nM
- IC50 [42]: > 64 nM
- IC50 [43]: > 64 nM
- IC50 [44]: > 64 nM
- IC50 [45]: 8.61 nM
- IC50 [46]: 6.21 nM
- IC50 [47]: > 64 nM
- IC50 [48]: 50.8 nM
- IC50 [49]: 3.78 nM
- IC50 [50]: 3.89 nM
- IC50 [51]: > 64 nM
- IC50 [52]: 47.2 nM
